These results are taken from US7790400B2, “Delta-9-tetrahydrocannabinol detection method” (Concateno UK Limited, priority 2004, dated 2010).

Assay [1] concerns gold-labelled mouse monoclonal anti-THC antibody. Description: Lateral flow immunochromatography test for cannabis, immobilised BSA-THC conjugate, spiked oral fluid, Cozart Rapiscan reader. The following applies: lowest concentration in spiked drug-free oral fluid giving a positive signal on the reader.
For assay [2] the test system is unchanged. The assay can be described thus: Lateral flow immunochromatography test for cannabis, immobilised BSA-CAN (5-pentylresorcinol/BSA) conjugate, spiked oral fluid, Cozart Rapiscan reader. The settings on record: for Concentration giving positive Cozart Rapiscan Response: immobilised conjugate BSA-CAN, lowest concentration in spiked drug-free oral fluid giving a positive signal on the reader; for Detectable level by competitive immunoassay: 5-pentylresorcinol conjugate with commercial anti-THC antibody.

Assay [3] relates to mouse monoclonal anti-THC antibody. Description: Interference of free 5-pentylresorcinol with antibody binding to immobilised 5-pentylresorcinol-macromolecule conjugates. The following applies: 5-pentylresorcinol in free solution.
For assay [4], the system named is antibodies raised to THC-COOH coupled to a carrier protein via the phenolic group at C1. The following applies: relative to THC-COOH; commercially available assay; cited from earlier work.

On to `CCCCCc1cc(O)c2c(c1)OC(C)(C)[C@@H]1CCC(CO)=C[C@@H]21` [THC—OH, 11-hydroxy-delta-9-THC], for which the “Concentration giving positive Cozart Rapiscan Response” value is 200 ng/mL in assay [1] and 20 ng/mL in assay [2]. For the same compound, the “Sensitivity of detection compared with the parent drug THC” value in assay [2] (5-pentylresorcinol conjugate and anti-THC antibody combination) is recorded as “comparable sensitivity to the parent drug”.
For `CCCCCc1cc(O)cc(O)c1` [5-pentylresorcinol], the “Interference with binding of anti-THC antibody to immobilised conjugate” value in assay [3] is listed as “does not interfere”.
With `CCCCCc1cc(O)c2c(c1)OC(C)(C)[C@@H]1CCC(C)=C[C@@H]21` [THC, Delta-9-tetrahydrocannabinol], in assay [4], the Cross-reactivity is 5%. In addition, the “Concentration giving positive Cozart Rapiscan Response” value in assay [1] amounted to 200 ng/mL. Moreover, in assay [2], the “Detectable level by competitive immunoassay” value was not above 20 ng/mL and the “Concentration giving positive Cozart Rapiscan Response” value stood at 20 ng/mL. Further, in assay [2] (lateral flow strips, BSA-CAN compared with BSA-THC), the “Increase of sensitivity of detection with BSA-CAN versus BSA-THC” value was “about 10 fold”.
Turning to `CCCCCc1cc(O)c2c(c1)OC(C)(C)[C@@H]1CCC(C(=O)O)=C[C@@H]21` [THC—COOH, 11-nor-9-carboxy-delta-9-THC], the “Concentration giving positive Cozart Rapiscan Response” value in assay [1] was 10 ng/mL. In assay [2], the “Detectable level by competitive immunoassay” value was “about 1.0 ng/ml” and the “Concentration giving positive Cozart Rapiscan Response” value is 1.0 ng/mL.
